Tests used:
[1] = target: T1, Glucocorticoid receptor (Homo sapiens, UniProt P04150); test: Displacement of [3H]dexamethasone from human glucocorticoid receptor expressed in baculovirus infected Sf9 cells after overnight incubation by scintillation counting
T1 sequence (P04150 whole entry): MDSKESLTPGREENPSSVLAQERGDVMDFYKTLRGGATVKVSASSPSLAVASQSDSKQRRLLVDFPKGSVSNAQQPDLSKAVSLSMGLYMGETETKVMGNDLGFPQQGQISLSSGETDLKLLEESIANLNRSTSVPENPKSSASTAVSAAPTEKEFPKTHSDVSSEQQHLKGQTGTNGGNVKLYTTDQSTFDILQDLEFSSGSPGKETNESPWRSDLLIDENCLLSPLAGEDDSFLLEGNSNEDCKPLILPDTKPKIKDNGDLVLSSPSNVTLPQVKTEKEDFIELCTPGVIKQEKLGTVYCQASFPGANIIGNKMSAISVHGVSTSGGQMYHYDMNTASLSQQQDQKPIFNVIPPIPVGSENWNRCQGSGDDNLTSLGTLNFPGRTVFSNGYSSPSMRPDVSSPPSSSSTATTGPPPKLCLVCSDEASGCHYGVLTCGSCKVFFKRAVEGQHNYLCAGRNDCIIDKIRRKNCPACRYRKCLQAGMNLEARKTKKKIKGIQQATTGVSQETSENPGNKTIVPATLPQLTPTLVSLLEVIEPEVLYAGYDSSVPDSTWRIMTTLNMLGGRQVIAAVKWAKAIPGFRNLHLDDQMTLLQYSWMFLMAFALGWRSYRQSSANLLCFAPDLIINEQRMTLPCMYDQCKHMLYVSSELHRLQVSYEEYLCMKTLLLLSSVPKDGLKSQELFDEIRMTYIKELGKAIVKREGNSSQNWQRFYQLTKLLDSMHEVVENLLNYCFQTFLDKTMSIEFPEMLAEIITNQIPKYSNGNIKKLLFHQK

[2] = target: T1, Glucocorticoid receptor; test: Antagonist activity at human glucocorticoid receptor expressed in GRAF cells assessed as inhibition of dexamethasone-induced alkaline phosphatase expression after 48 hrs by reporter gene assay; assay type: functional, cell-based
[3] = target: T2, Glucocorticoid receptor (Rattus norvegicus, UniProt P06536); test: Antagonist activity at glucocorticoid receptor in rat hepatocytes assessed as inhibition of dexamethasone-induced […] expression incubated for 30 mins prior to dexamethasone-induction measured after 4 hrs by reporter gene assay; assay type: functional, cell-based, Hepatocyte
T2 sequence (P06536 whole entry): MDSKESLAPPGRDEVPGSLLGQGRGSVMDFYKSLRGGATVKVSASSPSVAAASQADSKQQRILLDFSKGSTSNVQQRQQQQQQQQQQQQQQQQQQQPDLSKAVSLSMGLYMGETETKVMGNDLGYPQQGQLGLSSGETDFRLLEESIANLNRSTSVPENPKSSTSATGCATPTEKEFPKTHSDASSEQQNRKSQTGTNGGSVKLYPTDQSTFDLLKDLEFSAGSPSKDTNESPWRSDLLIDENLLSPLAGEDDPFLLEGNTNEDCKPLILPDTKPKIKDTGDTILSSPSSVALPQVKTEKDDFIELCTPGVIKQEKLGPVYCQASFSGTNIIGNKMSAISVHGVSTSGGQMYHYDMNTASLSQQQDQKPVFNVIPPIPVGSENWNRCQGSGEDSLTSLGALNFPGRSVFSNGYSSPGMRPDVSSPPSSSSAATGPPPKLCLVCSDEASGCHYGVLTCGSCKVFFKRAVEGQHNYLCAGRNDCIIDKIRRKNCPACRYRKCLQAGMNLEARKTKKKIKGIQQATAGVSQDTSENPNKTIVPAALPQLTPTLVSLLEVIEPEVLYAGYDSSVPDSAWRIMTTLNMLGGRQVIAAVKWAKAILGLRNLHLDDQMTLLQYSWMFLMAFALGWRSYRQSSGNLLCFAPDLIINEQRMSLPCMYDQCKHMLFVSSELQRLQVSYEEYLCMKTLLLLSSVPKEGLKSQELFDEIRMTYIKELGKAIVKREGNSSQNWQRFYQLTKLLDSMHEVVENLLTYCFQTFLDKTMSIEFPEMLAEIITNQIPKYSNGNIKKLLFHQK

[4] = target: T1, Glucocorticoid receptor; test: Displacement of [3H]dexamethasone from human glucocorticoid receptor expressed in baculovirus infected Sf9 cells after 16-18 hrs by beta counting
[5] = target: T1, Glucocorticoid receptor; test: Antagonist activity at human glucocorticoid receptor expressed in CHOK1 cells assessed as inhibition of dexamethasone-induced alkaline phosphatase expression after 46 hrs by reporter gene assay; assay type: functional, cell-based, CHO-K1
[6] = target: T2, Glucocorticoid receptor; test: Antagonist activity at glucocorticoid receptor in rat H4IIE cells assessed as inhibition of dexamethasone-induced […] expression after 24 hrs by reporter gene assay; assay type: functional, cell-based

## c1ccc(CN(Cc2ccc(Oc3ccccc3)cc2)c2ccccc2)cc1
[1]
  IC50: > 10000 nM

## O=C(O)Cc1cc(Br)c(N(Cc2ccc(Oc3ccccc3)cc2)Cc2cc(F)cc(F)c2)c(Br)c1
[2]
  IC50: 1050 nM
[3]
  IC50: 3900 nM
[1]
  IC50: 722 nM

## O=C(O)Cc1cc(Br)c(N(Cc2ccc(Oc3ccc(C(F)(F)F)cc3C(F)(F)F)cc2)Cc2cc(F)cc(F)c2)c(Br)c1
[2]
  IC50: 421 nM
[3]
  IC50: 2900 nM
[1]
  IC50: 111 nM

## O=C(O)Cc1cc(Br)c(N(Cc2ccc(Oc3ccc(Br)cc3Br)cc2)Cc2cc(F)cc(F)c2)c(Br)c1
[2]
  IC50: 1420 nM
[3]
  IC50: > 10000 nM
[1]
  IC50: 879 nM

## COc1cc(C(=O)c2cccc(C)c2)c(Oc2c(Br)cc(CC(=O)O)cc2Br)cc1C(C)C
[2]
  IC50: 410 nM
[4]
  IC50: 19 nM
[3]
  IC50: 2490 nM
[5]
  IC50: 400 nM
[6]
  IC50: 2500 nM
[1]
  IC50: 20 nM

## COc1ccccc1Oc1ccc(CN(Cc2cc(F)cc(F)c2)c2c(Br)cc(CC(=O)O)cc2Br)cc1
[1]
  IC50: 1260 nM

## O=C(O)Cc1cc(Br)c(N(Cc2ccc(Oc3ccccc3Cl)cc2)Cc2cc(F)cc(F)c2)c(Br)c1
[2]
  IC50: 512 nM
[3]
  IC50: 3000 nM
[1]
  IC50: 235 nM

## O=C(O)Cc1cc(Br)c(N(Cc2ccccc2)Cc2ccc(Oc3ccccc3)cc2)c(Br)c1
[1]
  IC50: 1200 nM

## Cc1c(NS(C)(=O)=O)cccc1N(Cc1ccc(Oc2ccc(F)c(OCC(=O)O)c2)cc1)Cc1cc(F)cc(F)c1
[2]
  IC50: 432 nM
[3]
  IC50: 1880 nM
[1]
  IC50: 4.6 nM

## O=C(O)Cc1cc(Br)c(N(Cc2ccc(Oc3ccccc3F)cc2)Cc2cc(F)cc(F)c2)c(Br)c1
[2]
  IC50: 46 nM
[3]
  IC50: 2100 nM
[1]
  IC50: 145 nM
